Article doi:10.1101/2021.07.22.453354v1 (biorxiv, 2021)

Molecular target: ΔNFun30 (printed ⊗NFun30), Fun30 from C. albicans, orf19.6291 (Candida albicans, UniProt A0A1D8PTJ0)
Test: biochemical

`Nc1ncnc2c1ncn2[C@@H]1O[C@H](COP(=O)(O)OP(=O)(O)OP(=O)(O)O)[C@@H](O)[C@H]1O` [ATP] was tested, and the Kd was 1.32 ± 0.03 µM.
